Laboratory results published in patent US7582786B2, “Synthetic catalytic free radical scavengers useful as antioxidants for prevention and therapy of disease” (Eukarion Inc., priority 1996, dated 2009).
“Also recorded” adds a separate entry of the source.

Tests used:
[1] = system: Rat hippocampal slices in culture; assay: Beta-amyloid peptide-induced cytotoxicity in hippocampal slice cultures; assay type: cell-based; settings: C7 25 μM
Method: Rat hippocampal slices in culture were incubated with the beta-amyloid peptide (1-42) at the indicated concentrations. Cell viability was assessed by two criteria: release of lactate dehydrogenase (L*H) into the culture medium and staining with propidium […] iodide (PI) which binds to exposed DNA.
Rat hippocampal slice cultures were incubated with the beta-amyloid peptide (1-42) at the indicated concentrations. Cell viability was assessed by two criteria: release of lactate dehydrogenase (L*H) into the culture medium and staining with propidium iod*de (PI) which binds to exposed DNA.

[2] = C7 inactivation in H2O2, HPLC; assay type: physicochemical; settings: 100 μM C7, 1 mM H2O2, with 1 mM ABTS
Method: Where indicated, 1 mM ABTS was also present. Components were mixed and, after various incubations times, a 30 μl aliquot was injected onto the HPLC. The mixtures were chromatographed on an octadecyl-silica column using a mobile phase consisting of 60% methanol:40% 0.1 M Nacl and a flow rate of 1 ml/min. […] A third component, with a retention time of 4.8 min, was detectable under some conditions; its appearance and disappearance was monitored but it was not further analyzed. In this system, ABTS and its oxidized product had retention times of 3.4 and 3.1-min, respectively, well resolved from the peaks of interest. Absorbance spectra collected during each run allowed the identity of C7 and salicylaldehyde to be verified. All peaks were integrated based upon their absorbance at 240 nm. The results are expressed as the percentage of maximum peak area. […] For the two putative breakdown products, this is equivalent to the largest peak observed during the course of the ˜2000 sec incubation period.

pigs = assay: Acute lung injury in endotoxemic pigs; assay type: in vivo, pig
Method: All pigs were pre-treated at T=−18 h with Escherichia coli 0111:B4 LPS (20 μg/kg). Pigs in the RL group (n=4) received no further treatment. […] Lung wet-to-dry weight ratio was determined post-mortem. Lung lipid peroxidation was estimated fluorometrically by measuring thiobarbituric acid reactive products in the lipid fraction of lung parenchymal tissue harvested at T=300 min.

[3] = SOD activity, inhibition of cytochrome C reduction by xanthine plus xanthine oxidase (Example 1); assay type: biochemical
Method: The SOD activity of the compounds was determined by evaluating the inhibition of the reduction of cytochrome C produced by the oxygen free radical generating system, xanthine plus xanthine oxidase. Cytochrome C reduction is monitored spectrophotometrically at 550 nm according to the method described in Darr et al. (1987) Arch. Biochem. Biophys. 258: 351, incorporated herein by reference. The concentration of xanthine oxidase is adjusted such that it produces a rate of reduction of cytochrome C at 550 nm of 0.025 absorbance unit per minute. Under these conditions, the amount of SOD activity required to inhibit the rate of cytochrome C reduction by 50 percent (i.e., to a rate of 0.0125 absorbance unit per minute) is defined as one unit of activity. Salen-metal complexes are identified as antioxidants if they have at least 0.1 unit of activity at a concentration of 1 mM under these standard assay conditions.

[4] = system: dopaminergic neurons in mouse striatum; assay: 6-OHDA model of neuronal injury in mice (3H-mazindol binding in striatal homogenates); assay type: in vivo
Method: 6-OHDA in mice. Adult male CFW mice were anesthetized with ketamine and rumpun, and immobilized in a stereotaxic device. 6-OHDA, as the hydrobromide salt, was dissolved in normal saline with 1% ascorbate, and 50 μg was administered in lateral ventricle by means of a 10 μl Hamilton syringe. […] Animals were sacrificed 7 days later, and neuronal pathology was assessed by measuring ^3H-mazindol binding in striatal homogenates.

Rats = assay: Rat model for stroke, Middle Cerebral Artery occlusion; assay type: in vivo; settings: single intravenous injection 3 hr after MCA occlusion
Method: (§1) Rats were subjected to a Middle Cerebral Artery (MCA) Occlusion model involving permanent occlusion of the parietal branch of the left middle cerebral artery and temporary (60 min) occlusion of the common carotid arteries. As indicated, rats received a single intravenous injection of vehicle (Control), or C40 at 3 hr after the MCA was occluded. Twenty-one hr after MCA occlusion, brains were removed, sectioned, and stained with the viability dye TTC (2,3,5-triphenyltetrazolium chloride). The stained sections were photographed and the volumes of infarcted (unstained) and viable (red stained) brain tissue quantitated by image analysis.
as §1, with “occlusion” for “Occlusion”

[5] = T = 300 min, C7 10 mg/kg bolus at T=60 min then 10 mg/kg-h after LPS
[6] = C7 4×66 mg/kg i.p., 6-OHDA 50 μg i.c.v.

Row | SMILES | protection from beta-amyloid peptide-induced cytotoxicity [1] | C7 peak disappeared rapidly [2] | C7 persisting for the ~2000 sec incubation [2] [%] | % Cdyn, dynamic pulmonary compliance (pigs; [5]) [%] | MDA, lung malondialdehyde level (pigs; [5]) [pmols/mg dry weight] | PaO2, arterial oxygenation (pigs; [5]) [mm Hg] | Ppa, mean pulmonary arterial pressure (pigs; [5]) [mm Hg] | W/D, lung wet-to-dry weight ratio (pigs; [5]) | protection against effects of endotoxin (pigs; administered 60 min after onset of endotoxemia) | SOD Activity ([3]; Example 1, cytochrome C reduction) [units/mM] | SOD Activity ([3]; previously found) | mazindol binding, contralateral striatum [4, 6] | mazindol binding, ipsilateral striatum [4, 6] | crossing of the blood brain barrier ([4]; concluded from effects of peripheral injections in in vivo models) | protection from 6-OHDA-induced degeneration ([4]; mouse, in vivo) | protection, infarct volume (Rats)
1 | [Cl][Mn]1[O]c2ccccc2C=NCCN=Cc2ccccc2[O]1 [Compound C7] | protect neurons; also recorded: protects neuronal tissue | about 20% | 80 | 78 ± 4 | 180 ± 27 | 148 ± 22 | 25 ± 3 | 6.4 ± 0.9 | protects against many of the deleterious effects of endotoxin | 575 | about 769 units/mM | complete protection | significant reduction | crosses the blood brain barrier | protects dopaminergic neurons | 
2 | COc1cccc2c1[O][Mn]([Cl])[O]c1c(cccc1OC)C=NCCN=C2 [Compound C40] |  |  |  |  |  |  |  |  |  |  |  |  |  |  |  | protective
